From paper PMC8344021, “Discovery of Small Molecule Bak Activator for Lung Cancer Therapy” (Theranostics, 2021)

Columns and labels:
[1] = test system: LSL-KRAS G12D LKB1 fl/fl (KL) mice lung tumors; assay: Mutant KRAS-driven lung cancer GEMM (KL mice); format: in vivo, mouse; details: 15 mg/kg/d i.p.
Protocol: LSL-KRAS^G12D LKB1^fl/fl (KL) were generated as previously described [30]-[33]. All studies were performed on protocols approved by the Emory University IACUC. Six weeks after cre-adenovirus infection, KL mice were treated with BKA-073 intraperitoneally (i.p) for 48 days. Mice were euthanized with CO2 asphyxiation. After lung perfusion with PBS, the left lung lobes were harvested from mice in control and BKA-073 treated groups and immediately fixed in 10% neutral buffered formalin (Fisher Scientific, Kalamazoo, MI), horizontally cut into three equal parts and embedded in paraffin blocks. Three parts of lung tissues representing different regions of the lung were vertically put into paraffin blocks for hematoxylin-eosin (H&E) staining. Lung tissue samples were sectioned at 3 µm three times for placement of slides and stained with H&E. H&E stained samples were scanned using Nano Zoomer 2.0-HT (Hamamatsu, Japan) and images were analyzed using ImageScope viewing software (Leica Biosystems, Buffalo Grove, IL). Tumor numbers were counted under a microscope and tumor area was quantified using Openlab modular imaging software (PerkinElmer, Waltham, MA) as previously described, [32].
KRAS is the most commonly mutated oncogene, yet no effective targeted therapies exist for KRAS-mutant cancers. […] Since BKA-073 is able to induce apoptosis by activation of Bak via facilitating its oligomerization in vitro and in vivo (Figures 1, 2 and 4), we were interested in testing whether BKA-073 is effective for the treatment of mutant KRAS-driven cancer. To assess the potency of BKA-073 in KRAS mutant-driven lung cancer, lox-stop-lox (LSL)-KRAS^G12D LKB1^fl/fl (i.e. KL) mice were generated and bred out as previously described, [31], [50], [51]. These mice contain a KRAS^G12D LSL knock-in allele and a floxed allele of LKB1 (LKB1^fl/fl), [31]. Primary lung adenocarcinoma was detectable as early as 6 weeks after intranasal administration of 5×10^6 pfu adenovirus expressing Cre recombinase (AdeCre) in KRAS^G12D LKB1^fl/fl (KL) mice. […] After treatment for 48 days, KL mice were euthanized with CO2 asphyxiation. Lungs with tumor and normal lung tissues were collected for further analysis. To quantify tumor burden and tumor multiplicity in mice, H&E-stained lungs were imaged with morphometric software to quantify the surface area composed of tumor as opposed to normal tissue of representative cross-sections of each lung lobe for each mouse as previously described [31]-[33]. […] There were 4 deaths out of 6 mice in the control group versus 2 death out of 6 mice in the BKA-073 treatment group […], calculated up to 48 days before euthanization.

A549-IRR xenografts = assay: Radioresistant A549-IRR xenografts, tumor growth; format: in vivo, Nu/Nu nude mice; details: 15 mg/kg/d, 4 weeks
Protocol: Six-week-old female Nu/Nu nude mice were purchased from Envigo (Indianapolis, IN) and housed under pathogen-free conditions in microisolator cages. The animal propagation protocol was approved by the Emory Institutional Animal Care and Use Committee (IACUC) and the Emory Animal Ethics Committee. 3×10^6 lung cancer cells were injected into subcutaneous tissue in the flank region of nude mice. The tumors were allowed to grow to an average volume of 150~200 mm^3 prior to initiation of therapy as previously described, [29]. Patient-derived xenografts (PDXs, TKO-002 and TKO-005) were established as part of an IRB-approved phase II co-clinical trial of arsenic trioxide in patients with relapsed SCLC who had failed standard platinum-based chemotherapy. Tumor samples were obtained by image-guided biopsy and were directly implanted into Nu/Nu nude mice without intervening propagation in plastic culture plates. Direct serial propagation of growing tumor occurred for up to 5 generations. […] During treatment, tumor volume (V) was measured by caliper measurements once every two days as described previously. […]
Figure S7. […] (A) Expression levels of Bak in A549-P versus A549-IRR cells, H358-P versus H358 -IRR cells or H460-P versus H460-IRR cells were analyzed by Western blot. […]
Tumor volume was measured once every 2 days. After treatment, mice were sacrificed and tumors were removed and analyzed. […]

SMILES: COc1ccc2nc3ccccc3c(NCCNCC(C)O)c2c1 (centres unmarked) [BKA-073]
- tumor burden in the lung ([1]; 48 days): significant reduction
- tumor multiplicity in the lung ([1]; 48 days): significant reduction
- deaths out of 6 mice ([1]; up to 48 days, control 4 of 6, p < 0.01): 2
- survival ([1]; vs control group): significantly prolonged survival
- tumor growth (A549-IRR xenografts): repressed xenografts
